The results in this text go back to patent US20240368115A1, “REGULATOR CONTAINING TRICYCLIC DERIVATIVE, PREPARATION METHOD THEREFOR AND APPLICATION THEREOF” (SHUJING BIOPHARMA CO., LTD, priority 2021, published 2024).

Structures are written as SMILES.

Series [1] in a line: Pharmacokinetic test in mice. Conditions: male, ICR, mouse, plasma, po, 3 mg/kg, oral intragastric, single dose 3 mg/kg. Format: in vivo. As to the method:
Male ICR mice were administered orally intragastrically, the plasma concentrations of the compounds of the present invention were measured in the mice, the PK parameters were calculated, and the pharmacokinetic evaluation was performed on the compounds of the present invention.
• (1) Test samples: the compounds of the examples of the present invention, self-made. • (2) Test animals: ICR mice, SPF grade, male, Xuzhou Medical University. • (3) Main test instruments:
Drug preparation: according to the weight of the weighed drug, the preparation volume was calculated. 5% of DMSO was added firstly. After the drug was fully dissolved, 95% of 20% aqueous PB-cyclodextrin solution was then added, and the mixture was mixed well for later use.
Administration route: oral intragastric administration. Frequency and duration of administration: single administration.
ICR mice were stratified according to body weight and then randomly divided into groups of 9 mice each, and the mice were fasted overnight prior to the test. The mice were separately administered orally intragastrically. 50 μL of blood was collected from the fundus vein of the mouse at 0 h, 0.083 h, 0.25 h, 0.5 h, 1 h, 2 h, 4 h, 8 h, 12 h, and 24 h (3 time points for each mouse) to a sample tube containing heparin sodium as an anticoagulant, and the tube was placed in wet ice and centrifuged at 4000 r·min^−1 for 10 min. The plasma was separated, and cryopreserved in a refrigerator at −80° C. for testing.
The concentrations of plasma samples were measured by high performance liquid chromatography-tandem mass spectrometry (LC-MS/MS). The retention times of the compounds and internal standard, chromatogram acquisitions, and integrals of chromatograms were processed using the software Analyst (AB SCIEX), and the data statistics were processed using the software Watson LIMS (Thermo Fisher Scientific) or Analyst (AB SCIEX). The concentration of plasma was processed using a non-compartmental model of the pharmacokinetic software WinNonlin™ Version 6.3 (Pharsight, Mountain View, CA), and pharmacokinetic parameters were calculated by a linear log-trapezoidal method.

The next series addresses T1, D2L receptor (Homo sapiens, UniProt P14416).
T1 construct: expressed in transfected cells
As to the kind of experiment: D2L receptor cAMP agonist test. Format: cell-based. Conditions: HEK293 cell strain stably expressing D2L receptor.

Another series has as its target 5-HT2A receptor (Homo sapiens, UniProt P28223). Briefly: Calcium flux test for 5-HT2A receptor. Format: cell-based. Conditions: CHO cell strain stably expressing 5-HT2A receptor. For orientation: A change in cytosolic calcium serves as a functional read-out for many receptors and channels.
For the next series, the target named is T2, 5-HT1A receptor (Homo sapiens, UniProt P08908).
T2 construct: expressed in transfected cells
T2 sequence (P08908 1-422): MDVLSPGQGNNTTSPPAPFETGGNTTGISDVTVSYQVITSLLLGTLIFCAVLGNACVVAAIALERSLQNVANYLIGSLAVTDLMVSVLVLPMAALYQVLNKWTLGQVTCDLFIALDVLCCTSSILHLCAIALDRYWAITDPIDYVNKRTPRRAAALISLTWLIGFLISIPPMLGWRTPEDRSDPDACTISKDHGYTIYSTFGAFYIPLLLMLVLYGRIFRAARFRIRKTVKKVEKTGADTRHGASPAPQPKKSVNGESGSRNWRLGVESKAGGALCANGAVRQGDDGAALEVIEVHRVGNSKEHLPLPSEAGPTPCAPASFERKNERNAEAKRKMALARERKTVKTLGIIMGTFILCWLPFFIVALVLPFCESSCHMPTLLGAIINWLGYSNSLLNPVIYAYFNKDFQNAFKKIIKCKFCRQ
Briefly: 5-HT1A receptor cAMP agonist test. Format: cell-based. Particulars: HEK293 cell strain stably expressing 5-HT1A receptor.

The target of a further series is T3, D2S receptor (Homo sapiens, UniProt P14416).
T3 construct: expressed in transfected cells
T3 sequence (P14416 1-414 isoform P14416-2): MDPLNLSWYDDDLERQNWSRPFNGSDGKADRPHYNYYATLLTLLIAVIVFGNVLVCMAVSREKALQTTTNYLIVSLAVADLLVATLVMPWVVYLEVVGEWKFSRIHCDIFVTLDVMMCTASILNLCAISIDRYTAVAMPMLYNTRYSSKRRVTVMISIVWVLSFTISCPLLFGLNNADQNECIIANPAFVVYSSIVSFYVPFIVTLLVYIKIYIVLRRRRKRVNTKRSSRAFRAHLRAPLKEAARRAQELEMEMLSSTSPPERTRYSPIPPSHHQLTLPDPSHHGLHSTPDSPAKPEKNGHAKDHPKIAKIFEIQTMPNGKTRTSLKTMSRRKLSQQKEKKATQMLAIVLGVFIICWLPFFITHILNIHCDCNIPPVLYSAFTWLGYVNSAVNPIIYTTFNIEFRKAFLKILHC
As to the kind of experiment: D2S receptor cAMP agonist test. Format: cell-based. Particulars: HEK293 cell strain stably expressing D2S receptor.

T1 sequence (P14416 whole entry): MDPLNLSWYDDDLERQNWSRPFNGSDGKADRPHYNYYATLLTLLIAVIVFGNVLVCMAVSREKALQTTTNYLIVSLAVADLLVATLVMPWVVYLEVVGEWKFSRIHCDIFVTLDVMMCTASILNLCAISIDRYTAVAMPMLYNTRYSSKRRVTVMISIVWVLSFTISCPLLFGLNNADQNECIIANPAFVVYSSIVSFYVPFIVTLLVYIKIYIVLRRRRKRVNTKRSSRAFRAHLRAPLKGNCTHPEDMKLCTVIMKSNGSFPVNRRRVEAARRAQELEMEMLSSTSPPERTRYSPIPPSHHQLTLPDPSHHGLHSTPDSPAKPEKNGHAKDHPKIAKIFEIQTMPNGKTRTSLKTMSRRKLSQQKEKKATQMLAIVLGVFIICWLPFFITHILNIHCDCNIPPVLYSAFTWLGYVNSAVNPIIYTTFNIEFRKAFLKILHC
5-HT2A receptor, sequence (P28223 whole entry): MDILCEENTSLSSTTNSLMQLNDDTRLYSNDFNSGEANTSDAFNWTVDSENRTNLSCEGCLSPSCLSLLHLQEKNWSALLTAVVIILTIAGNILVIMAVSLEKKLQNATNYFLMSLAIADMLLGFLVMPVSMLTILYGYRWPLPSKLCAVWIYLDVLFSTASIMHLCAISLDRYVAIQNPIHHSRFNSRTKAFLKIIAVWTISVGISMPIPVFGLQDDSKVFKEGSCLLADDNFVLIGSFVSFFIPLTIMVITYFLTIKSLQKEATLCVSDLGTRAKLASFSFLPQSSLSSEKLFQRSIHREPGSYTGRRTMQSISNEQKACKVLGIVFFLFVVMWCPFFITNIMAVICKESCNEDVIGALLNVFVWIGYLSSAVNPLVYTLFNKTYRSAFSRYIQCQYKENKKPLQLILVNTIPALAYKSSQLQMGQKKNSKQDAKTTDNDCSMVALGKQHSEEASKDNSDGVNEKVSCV

For orientation: half-life means the time needed for the level to fall by half in the phase considered. High values mean slow decline, low ones rapid decline. For orientation: AUC(0-inf) means total exposure, with the tail of the curve extrapolated. The Cmax is the peak of the concentration-time curve. In general, EC50 refers to the concentration at which the effect is half-maximal. A high value points to weaker potency. As a reminder, the IC50 is the concentration that gives 50% inhibition. `O=C1Nc2cc(OCCCCN3CCN(c4cccc5sc(Cl)cc45)CC3)ccc2C2CC12` (centres unmarked) [Example 49, 5-(4-(4-(2-Chlorobenzo[b]thiophen-4-yl)piperazin-1-yl)butoxy)-1,1a,3,7b-tetrahydro-2H-cyclopropa[c]quinolin-2-one] gave a half-life in series [1] of 10.5 h. The AUC(0-inf) in series [1] (read-out: AUC(0-inf)) was determined as 4780 ng·h/mL. The Cmax in series [1] (read-out: Cmax) was determined as 420 ng/mL. Moreover, the EC50 was determined as 0.91 nM at D2L receptor (cAMP, forskolin 0.5 μM); 128 nM on 5-HT1A receptor (cAMP, forskolin 2.5×10^−7 M); 0.99 nM at D2S receptor (cAMP, forskolin 5×10^−7 M). Also, the “D2L Max Act %” value on D2L receptor (positive control dopamine 1 μM) came to 56.3%. The half-maximal inhibitory concentration (IC50) on 5-HT2A receptor (calcium flux, antagonism of serotonin) is 7400 nM. The “5-HT2A Max Inh %” value at 5-HT2A receptor (positive control ketanserin 10^−7 M) is on record as 90.4%. Also, on 5-HT1A receptor (positive control serotonin 10^−6 M), the “5-HT1A Max Act %” value is 80.7%. For the same compound, on D2S receptor (positive control dopamine 1×10^−7 M), the “D2S Max Act %” value is recorded as 112.6%.
